Type: physicochemical
From the text: The short degradation period refers that the biodegradation effect is high; it has advantage that the secondary infection due to the suture is decreased.

poly(glycolide-co-L-lactide) [PGLA suture]
degradation behavior (in words): degradation of the suture was quickly progressed
